Experimental data from paper PMC7114863 (Journal of Hepatology, 2009).

Key:
[1] = test system: J6/JFH chimeric HCV reporter virus (J6/JFH-Rluc2a-FLAG); assay: Antiviral assay with HCVcc virus in Huh-Lunet cells; assay type: cell-based, HCV genotype 2a; conditions: for EC50: Hepatitis C virus, 72 h, read-out: Anti-HCV activity EC50, J6/JFH
[2] = Cytostatic assay; assay type: cell-based; conditions: human, HCV replicon-containing cells (Huh 5-2, HuH6 or Huh 9-13)
[3] = test system: HCV subgenomic 1b replicon; assay: Anti-HCV subgenomic replicon assay; assay type: cell-based
[4] = test system: bovine viral diarrhea virus (BVDV, flaviviridae); assay: Antiviral assay with BVDV; assay type: cell-based
[5] = test system: HuH6 replicon-containing cells; assay: Drug combinations in HuH6 cells; assay type: cell-based, HCV; conditions: checkerboard
[6] = test system: HCV replicon in Huh 9-13 cells; assay: HCV replicon clearance-rebound assay; assay type: cell-based; conditions: for clearance of replicon, drug alone: 20 × EC50, Huh 9-13; for drug resistant replicon in cells surviving rebound conditions: after treatment, addition of G418, data not shown; for clearance of Huh 9-13 cells from their replicon, drug alone: five times EC50, 3 passages
[7] = test system: YFV-17D (flaviviridae); assay type: cell-based, yellow fever virus
[8] = test system: HIV-1 (IIIB); assay: Antiviral assay, HIV-1; assay type: cell-based; conditions: data not shown
[9] = test system: HIV-2 (ROD, retroviridae); assay: Antiviral assay, HIV-2; assay type: cell-based; conditions: data not shown
[10] = test system: herpes simplex virus-1 (KOS strain, TK^− KOS ACV^r); assay: Antiviral assay, herpes simplex virus-1; assay type: cell-based; conditions: data not shown
[11] = test system: herpes simplex virus-2 (G strain, herpesviridae); assay: Antiviral assay, herpes simplex virus-2; assay type: cell-based; conditions: data not shown
[12] = test system: influenza A virus (H1N1 and H3N2); assay: Antiviral assay, influenza A virus; assay type: cell-based; conditions: data not shown
[13] = test system: influenza B virus (orthomyxoviridae); assay: Antiviral assay, influenza B virus; assay type: cell-based; conditions: data not shown
[14] = test system: vaccinia virus (poxviridae); assay: Antiviral assay, vaccinia virus; assay type: cell-based; conditions: data not shown
[15] = test system: vesicular stomatitis virus (rhabdoviridae); assay type: cell-based
[16] = test system: respiratory syncytial virus (paramyxoviridae); assay: Antiviral assay, respiratory syncytial virus; assay type: cell-based; conditions: data not shown
[17] = test system: coxsackie virus B4 (picornaviridae); assay: Antiviral assay, coxsackie virus; assay type: cell-based; conditions: data not shown
[18] = test system: para-influenza-3 virus (paramyxoviridae); assay: Antiviral assay, para-influenza virus; assay type: cell-based; conditions: data not shown
[19] = test system: reovirus-1 (reoviridae); assay: Antiviral assay, reovirus; assay type: cell-based; conditions: data not shown
[20] = test system: sindbis virus (alphaviridae); assay: Antiviral assay, sindbis virus; assay type: cell-based; conditions: data not shown
[21] = test system: feline coronavirus (coronaviridae); assay: Antiviral assay, feline coronavirus; assay type: cell-based; conditions: data not shown
[22] = test system: Punta Toro virus (bunyaviridae); assay: Antiviral assay, Punta Toro virus; assay type: cell-based; conditions: data not shown
[23] = Stability in basic and acidic solutions; assay type: physicochemical
[24] = NADPH-dependent metabolic stability in human hepatic microsomes; assay type: in vitro ADME
[25] = NADPH-dependent metabolic stability in dog hepatic microsomes; assay type: in vitro ADME
[26] = NADPH-dependent metabolic stability in rat hepatic microsomes; assay type: in vitro ADME
[27] = test system: GSK-4^res replicon; assay: Anti-HCV assay, GSK-4 resistant replicon; conditions: for EC50: Hepatitis C virus, read-out: EC50, GSK-4^res; for fold resistance, GSK-4^res: versus wild-type replicon
[28] = test system: BILN-2061^res replicon; assay: Anti-HCV assay, BILN-2061 resistant replicon; conditions: for EC50: Hepatitis C virus, read-out: EC50, BILN-2061^res; for fold resistance, BILN-2061^res: versus wild-type replicon
[29] = test system: 2′-C-MeCyt^res replicon; assay: Anti-HCV assay, 2′-C-MeCyt resistant replicon; conditions: for EC50: Hepatitis C virus, read-out: EC50, 2′-C-MeCyt^res; for fold resistance, 2′-C-MeCyt^res: versus wild-type replicon
[30] = test system: HuH6 replicons; assay: Anti-HCV replicon assay in HuH6 cells; conditions: Hepatitis C virus, HuH-6, read-out: Anti-HCV activity EC50, HuH6
[31] = test system: 4′-Azidocytidine^res replicon; assay: Anti-HCV assay, 4′-azidocytidine resistant replicon; conditions: for EC50: Hepatitis C virus, read-out: EC50, 4′-Azidocytidine^res; for fold resistance, 4′-Azidocytidine^res: versus wild-type replicon
[32] = test system: VX-950^res and BILN-2061^res replicon; assay: Anti-HCV assay, VX-950 and BILN-2061 double resistant replicon; conditions: for fold resistance, VX-950^res and BILN-2061^res: versus wild-type replicon; for EC50: Hepatitis C virus, read-out: EC50, VX-950^res and BILN-2061^res
[33] = test system: HCV; conditions: cited from earlier work
[34] = 300 nM, Huh 9-13, data not shown

## Fc1cccc(-c2nc3ccn(Cc4cc(-c5ccc(Cl)cc5)no4)cc-3n2)c1F [GS-327073, 5-[[3-(4-chlorophenyl)-5-isoxazolyl]methyl]-2-(2,3-difluorophenyl)-5H-imidazo[4,5-c]pyridine]
[1]
  EC50: 330 ± 140 nM
[1]; versus 1b replicon
  fold higher EC50 for HCV genotype 2a virus than for 1b replicon: 100 fold
[2]
  CC50: ≥ 17000 nM
[3]; CC50/EC50
  selectivity indices: ≥ 340
[3]; Hepatitis C virus, GETYPE1, read-out: mean EC50 values, HCV (genotype 1) subgenomic replicon replication
  EC50: 2 to 50 nM
[4]
  cross-resistance with BPIP in anti-BVDV assay: cross-resistant
[4]; compared to compound 1
  fold less potent against BVDV than compound 1: about 10 fold
[5]
  combined antiviral activity with 2′-C-MeCyt: additive antiviral activity
  combined antiviral activity with IFNα 2b: additive antiviral activity
  combined antiviral activity with VX-950: additive antiviral activity
  combined antiviral activity with low concentrations of IFNα 2b: slight synergistic effect
  combined antiviral activity with ribavirin: additive antiviral activity
[6]
  clearance of replicon, drug alone: failed to achieve clearance
  drug resistant replicon in cells surviving rebound conditions: did not contain drug resistant replicon
  clearance of Huh 9-13 cells from their replicon, drug alone: did not achieve complete clearance
[6]; Huh 9-13
  clearance of replicon, combination GS-327073 (5 × EC50) and VX-950 (5 × EC50): clearance of Huh 9-13 cells from their replicon following one passage
  passages until clearance of replicon RNA, GS-327073 (20 × EC50) with 2′-C-MeCyt (20 × EC50): 2 passages
[7]
  activity against yellow fever virus (17D): inactive
[8]
  activity against human immunodeficiency virus 1: inactive
[9]
  activity against human immunodeficiency virus 2: inactive
[10]
  activity against herpes simplex virus 1: inactive
[11]
  activity against herpes simplex virus 2: inactive
[12]
  activity against influenza virus A: inactive
[13]
  activity against influenza virus B: inactive
[14]
  activity against vaccinia virus: inactive
[15]
  activity against vesicular stomatitis virus: inactive
[16]
  activity against respiratory syncitial virus: inactive
[17]
  activity against coxsackie virus: inactive
[18]
  activity against para-influenza virus: inactive
[19]
  activity against reovirus: inactive
[20]
  activity against sindbis virus: inactive
[21]
  activity against feline coronavirus: inactive
[22]
  activity against Punta Toro virus: inactive
[23]; pH 2.2
  stability in acidic solution: remained stable
[23]; pH 7.3
  stability in basic solution: remained stable
[24]; human hepatic microsomes, NADPH-dependent
  microsomal half-time: 236 min
[24]; human microsomes
  predicted hepatic clearance: 2.5 mL/min/kg
[25]; dog hepatic microsomes, NADPH-dependent
  microsomal half-time: 88 min
[25]; dog microsomes
  predicted hepatic clearance: 6 mL/min/kg
[26]; rat hepatic microsomes, NADPH-dependent
  microsomal half-time: 96 min
[26]; rat microsomes
  predicted hepatic clearance: 10.5 mL/min/kg
[27]
  activity against GSK-4 resistant replicons: retained wild-type activity
  EC50: 11 ± 1 nM
  fold resistance, GSK-4^res: (5.5)
[28]
  activity against BILN-2061 resistant replicons: retained wild-type activity
  EC50: 9 ± 5 nM
  fold resistance, BILN-2061^res: (4.5)
[29]
  activity against 2′-C-MeCyt resistant replicons: retained wild-type activity
  EC50: 8 ± 6 nM
  fold resistance, 2′-C-MeCyt^res: (4.0)
[29]; [34]
  fate of cells containing 2′-C-MeCyt^res replicon under G418 pressure: died following only one passage
[30]
  EC50: 50 ± 20 nM
[31]
  activity against 4′-azidocytidine resistant replicons: retained wild-type activity
  EC50: 7.2 ± 0.8 nM
  fold resistance, 4′-Azidocytidine^res: (3.6)
[32]
  activity against BILN-2061/VX-950 double resistant replicons: retained wild-type activity
  fold resistance, VX-950^res and BILN-2061^res: (2.0)
[32]; [34]
  fate of cells containing VX-950/BILN-2061^res replicon under G418 pressure: died following only one passage

## CC(C)(C)NC(=O)N[C@H](C(=O)N1C[C@H]2[C@@H]([C@H]1C(=O)NC(CC1CCC1)C(=O)C(N)=O)C2(C)C)C(C)(C)C (stereo partly drawn) [SCH 503034, (1R,5S)-N-[3-amino-1-(cyclobutylmethyl)-2,3-dioxopropyl]-3-[2(S)-[[[(1,1-dimethylethyl)amino]carbonyl]amino]-3,3-dimethyl-1-oxobutyl]-6,6-dimethyl-3-azabicyclo[3.1.0]hexan-2(S)-carboxamide]
[1]
  EC50: 340 nM
[2]
  CC50: ≥ 7400 nM

## [N-]=[N+]=N[C@]1(CO)O[C@@H](n2ccc(N)nc2=O)[C@H](O)[C@@H]1O [4′-Azidocytidine, 4′-azidocytidine]
[2]
  CC50: > 33000 nM
[29]
  EC50: 1200 ± 430 nM
  fold resistance, 2′-C-MeCyt^res: (0.41)
[30]
  EC50: 7400 ± 3700 nM
[31]
  EC50: ≥ 16000 nM
  fold resistance, 4′-Azidocytidine^res: (⩾5.5)

## CCC[C@H](NC(=O)[C@@H]1[C@H]2CCC[C@H]2CN1C(=O)[C@@H](NC(=O)[C@@H](NC(=O)c1cnccn1)C1CCCCC1)C(C)(C)C)C(=O)C(=O)NC1CC1 [VX-950]
[1]
  EC50: 290 ± 110 nM
[2]
  CC50: ≥ 24000 nM
[6]
  clearance of Huh 9-13 cells from their replicon, drug alone: did not achieve complete clearance
[28]
  EC50: 310 ± 50 nM
  fold resistance, BILN-2061^res: (0.53)
[29]
  EC50: 1000 ± 30 nM
  fold resistance, 2′-C-MeCyt^res: (1.7)
[30]
  EC50: 1400 ± 490 nM
[31]
  EC50: 690 ± 150 nM
  fold resistance, 4′-Azidocytidine^res: (1.2)
[32]
  EC50: 14000 ± 1400 nM
  fold resistance, VX-950^res and BILN-2061^res: (24)

## C[C@@]1(O)[C@H](O)[C@@H](CO)O[C@H]1n1ccc(N)nc1=O [2′-C-MeCyt, 2′-C-Methylcytidine]
[1]
  EC50: 100 ± 20 nM
[2]
  CC50: ≥ 26000 nM
[6]
  clearance of replicon, drug alone: failed to achieve clearance
  drug resistant replicon in cells surviving rebound conditions: did not contain drug resistant replicon
[28]
  EC50: 910 ± 1100 nM
  fold resistance, BILN-2061^res: (2.1)
[29]
  EC50: ≥ 30000 nM
  fold resistance, 2′-C-MeCyt^res: ⩾81
[30]
  EC50: 1020 ± 440 nM
[31]
  EC50: 3400 ± 1100 nM
  fold resistance, 4′-Azidocytidine^res: (7.9)
[32]
  EC50: 1000 ± 700 nM
  fold resistance, VX-950^res and BILN-2061^res: (2.3)

## CNC(=O)c1c(-c2ccc(F)cc2)oc2cc(N(CCO)S(C)(=O)=O)c(C3CC3)cc12 [HCV-796]
[1]
  EC50: < 100 nM
[2]
  CC50: > 33000 nM
[27]
  EC50: 60 ± 30 nM
  fold resistance, GSK-4^res: (0.75)
[30]
  EC50: 10 ± 3 nM

## CC1CCC(C(=O)N(c2cc(-c3ccccc3)sc2C(=O)O)C2CCC(O)CC2)CC1 (centres unmarked) [VCH-759]
[33]; HCV-infected patients
  tolerability in early clinical studies: generally well-tolerated
[33]; after 10 days of treatment in HCV-infected patients
  decrease in HCV RNA: 2.5 log10

## NC(=O)c1ncn([C@@H]2O[C@H](CO)[C@@H](O)[C@H]2O)n1 [Ribavirin]
[2]
  CC50: > 33000 nM
[30]
  EC50: 28000 ± 16000 nM

## COc1ccc2c(O[C@@H]3C[C@H]4C(=O)N[C@]5(C(=O)O)C[C@H]5/C=C\CCCCC[C@H](NC(=O)OC5CCCC5)C(=O)N4C3)cc(-c3csc(NC(C)C)n3)nc2c1 [BILN-2061]
[2]
  CC50: ≥ 22000 nM
[28]
  EC50: 1300 ± 470 nM
  fold resistance, BILN-2061^res: (130)
[29]
  EC50: 40 ± 30 nM
  fold resistance, 2′-C-MeCyt^res: (4.0)
[30]
  EC50: 4 ± 2 nM
[31]
  EC50: 14 ± 8 nM
  fold resistance, 4′-Azidocytidine^res: (0.93)
[32]
  EC50: 800 ± 80 nM
  fold resistance, VX-950^res and BILN-2061^res: (80)
